According to patent publication US20210371895A1, “BACTERIAL RESPONSE” (BioFire Diagnostics, LLC, priority 2018, published 2021):

Experiments:
lexA [1] = assay: Benchtop RT-PCR Cp of lexA transcript, strains S1/R1 with ciprofloxacin; type: cell-based, P. aeruginosa; conditions: 15 μg/mL Ciprofloxacin for 10 minutes, cDNA 1:100 dilution
Protocol: (§1) P. aeruginosa, two strains: one that is resistant and the other susceptible. • S1=susceptible to Ciprofloxacin • R1=resistant to Ciprofloxacin
(§2) In this example, each strain (S1 and R1) was grown to 0.5 OD600 (-1×10^8 CFU/mL) and each was treated with or without 15 μg/mL of Ciprofloxacin for 10 minutes (two strains, each +/− antibiotic, provides four test conditions). It is understood that the OD and antibiotic incubation time are illustrative only and that other concentrations and times may be used. cDNA was generated by extracting on Magnapure using TNA kit, following bacterial lysis protocol, quantifying using Qubit RNA HS Assay Kit (Q32852), genomic DNA removed and cDNA generated using Maxima H Minus cDNA Kit with dsDNAse (M1682).
For other genes, significant ΔCp was found only in the presence of antibiotics. These “specific antibiotic resistance genes” include lexA, sulA, ptrB, and, PA14_RS07985, with ptrB showing up-regulation in the resistant strain. The amplification curves for lexA are shown in FIG. 5B, where the susceptible strain with antibiotic has a Cp about 2 cycles earlier than the other three conditions. For the other three conditions, the resistant strain with and without antibiotics had essentially the same Cp as the susceptible strain without antibiotics.

lasI = assay: Benchtop RT-PCR Cp of lasI transcript, strains S1/R1 with ciprofloxacin; type: cell-based, P. aeruginosa; conditions: 15 μg/mL Ciprofloxacin for 10 minutes, cDNA 1:100 dilution
Protocol: as §1, §2
For some of these genes, a similar ΔCp between susceptible and resistant strains was found both with and without the presence of antibiotics. Such genes are referred to as “generic antibiotic resistance genes” as they distinguish between susceptible and resistant strains even in the absence of antibiotics. Several of these generic antibiotic resistance genes are in the quorum sensing pathway or the iron uptake pathway, while the pathway for several others are unknown. These genes included LasI, RhlI, pqsH, pvdE, PepSY, speD, PA14_RS20905, and coA. […]

lexA [2] = assay: Pouch panel (+dsDNAse +RT) relative expression level of lexA after ciprofloxacin exposure; type: cell-based, Pseudomonas aeruginosa; conditions: 7.5 or 15 μg/mL ciprofloxacin, 10, 30 and 60 minutes, versus zero ciprofloxacin
From the text: In this illustrative example, a pouch similar to pouch 510 was developed to include a DNase treatment step by including DNAse, illustratively a dsDNAse from Pandalus borealis, freeze dried into the fitment, as well as a slight modification in the elution buffer that is freeze dried into injection channel 515e, although it is understood that this dsDNAse is illustrative only and that other DNAses can be used, as well as other DNA removal methods. For the DNAse step, subsequent to elution, the temperature is raised to a temperature suitable for the DNAse enzyme, illustratively 42° C., followed by reverse-transcription and first-stage multiplex PCR. In this example, the pouch contained 45 different assays of interest (including control genes such as rpoD), targets where mRNA is present in concentrations greater than genomic (“high copy targets”) such as PA14_RS28865, as well as a number of antibiotic resistance gene targets including recA (specific) and lasI (generic) that are present in concentrations lower than genomic. However, it is understood that this panel of assays is illustrative only, and any combination of assays may be used. In one illustrative embodiment, all assays are for RNA targets, illustratively mRNA targets, although other RNA targets may be suitable for detection and/or quantification using the methods provided herein. […]

In the case of `O=C(O)c1cn(C2CC2)c2cc(N3CCNCC3)c(F)cc2c1=O` [Ciprofloxacin], the “Cp of lexA amplification curve” value (lexA [1]; Resistant strain +ABX) is reported as 18.55, the “Cp of lexA amplification curve” value (lexA [1]; Susceptible strain +ABX) is reported as 16.36 and the “Cp of lasI amplification curve” value (lasI; Resistant strain +ABX) is reported as 15.15. For the same molecule, the “Cp of lasI amplification curve” value (lasI; Susceptible strain +ABX) was 10.55, the “relative expression of lexA (geometric mean normalized Cp)” value (lexA [2]; resistant strain) was “did not change” and the “relative expression of lexA (geometric mean normalized Cp)” value (lexA [2]; susceptible strain) was “clear time dependent induction”.
